According to paper PMC2248166, “Quantitative peptide binding motifs for 19 human and mouse MHC class I molecules derived using positional scanning combinatorial peptide libraries” (Immunome Research, 2008):

Legend:
[1] = target: HLA B*1503 (Homo sapiens, UniProt P01889, A329T/A93T/A95T/C349S/D201E/D98Y/E187L/E204Q/K202T/N87E/Q94N/R155S/R180L/S121R/S35A/V306I/V36M/Y140S/Y91S); experiment: biochemical; format: binding
[2] = target: HLA B*5301 (Homo sapiens, UniProt P01889, A329T/A93T/A95T/C349S/D201E/D98Y/E176V/E187L/E204Q/E69T/G107R/I218V/K202T/L105A/L119I/N104I/Q94N/R106L/R155S/R180L/S101N/S121R/S35A/S48A/T118I/V127L/V306I/V36M/Y140S/Y91F); format: binding
[3] = target: HLA A*6802 (Homo sapiens, UniProt P04439, A269V/D140Y/D185E/E176V/E277Q/E87N/F33Y/G231S/I121R/I166T/I218V/L180W/L300P/L318F/N151K/P208A/P217A/Q86R/R138H/R169H/S129P/T345S/V36M); format: binding
[4] = target: HLA A*3201 (Homo sapiens, UniProt P04439, A270S/D101S/D185E/E176V/E277Q/F133L/G103R/G107R/G231S/H175R/I121M/I218V/I322F/K168Q/L105A/L300P/L318F/M331R/P208A/P217A/Q94H/R106L/R138Q/S129P/T104I/T323A/T345S/V100E/V321M/V358M); experiment: biochemical; format: binding
[5] = target: HLA B*0801 (Homo sapiens, UniProt P01889, A93T/A95T/D138N/E176V/E187T/K202T/Q94N/R180D/S35A/V36M/Y33D/Y91F); experiment: biochemical; format: binding
[6] = target: HLA B*5801 (Homo sapiens, UniProt P01889, A329T/C349S/D201E/D98Y/E176V/E187L/E204Q/E69T/G107R/I218V/I90N/K202T/L105A/L119I/N104I/N87E/Q89R/Q94S/R106L/R155S/R180L/R86G/S101N/S121R/S35A/S48A/T118I/V127L/V306I/V36M/Y140S/Y91M); format: binding
[7] = target: HLA A*3001 (Homo sapiens, UniProt P04439, D140H/D185E/E176W/F33S/G80R/H175R/K168Q/R138E/R41S); experiment: biochemical; format: binding
[8] = target: H-2 D^b (Mus musculus, UniProt P01899); format: binding
Chain of H-2 D^b (P01887 21-119): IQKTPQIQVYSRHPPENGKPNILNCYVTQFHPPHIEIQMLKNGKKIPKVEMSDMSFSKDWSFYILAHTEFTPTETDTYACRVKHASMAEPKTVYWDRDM
Chain of H-2 D^b (P01899 25-362): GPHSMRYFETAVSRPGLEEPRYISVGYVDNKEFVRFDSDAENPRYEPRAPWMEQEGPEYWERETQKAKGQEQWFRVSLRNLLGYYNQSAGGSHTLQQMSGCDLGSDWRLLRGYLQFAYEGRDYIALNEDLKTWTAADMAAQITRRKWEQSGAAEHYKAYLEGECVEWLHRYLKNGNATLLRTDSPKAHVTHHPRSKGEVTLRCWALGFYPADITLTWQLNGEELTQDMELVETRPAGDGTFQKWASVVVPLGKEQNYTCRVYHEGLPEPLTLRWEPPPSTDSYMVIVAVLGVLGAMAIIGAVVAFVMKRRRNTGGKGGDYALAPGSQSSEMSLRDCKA

[9] = target: HLA B*3501 (Homo sapiens, UniProt P01889, A329T/A93T/A95T/C349S/D201E/D98Y/E176V/E187L/E204Q/E69T/I218V/K202T/L119I/Q94N/R155S/R180L/S121R/S35A/S48A/T118I/V127L/V306I/V36M/Y140S/Y91F); format: binding
[10] = target: HLA B*1501 (Homo sapiens, UniProt P01889, A329T/A93T/A95T/C349S/D201E/D98Y/E187L/E204Q/E69M/E70A/K202T/N87E/Q94N/R155S/R180W/S121R/S35A/S48A/V306I/V36M/Y140S/Y91S); experiment: biochemical; format: binding
[11] = target: H-2 K^k (Mus musculus, UniProt P04223); format: binding
Chain of H-2 K^k (P01887 21-119): as the sequence (P01887 21-119) above
Chain of H-2 K^k (P04223 22-369): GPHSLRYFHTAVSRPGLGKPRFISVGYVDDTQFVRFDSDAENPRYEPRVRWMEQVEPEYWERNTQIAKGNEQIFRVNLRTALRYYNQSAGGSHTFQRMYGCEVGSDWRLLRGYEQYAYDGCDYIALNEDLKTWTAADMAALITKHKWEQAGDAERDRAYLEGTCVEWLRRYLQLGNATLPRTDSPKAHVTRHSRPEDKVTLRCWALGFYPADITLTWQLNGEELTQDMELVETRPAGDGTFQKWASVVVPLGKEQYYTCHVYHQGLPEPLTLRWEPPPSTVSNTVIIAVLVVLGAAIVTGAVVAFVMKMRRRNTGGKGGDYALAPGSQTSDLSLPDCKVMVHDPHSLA

[12] = target: HLA B*5101 (Homo sapiens, UniProt P01889, A329T/A93T/A95T/C349S/D138N/D201E/D98Y/E187L/E204Q/E69T/G107R/I218V/K202T/L105A/L119W/N104I/Q94N/R106L/R155S/R180L/S101N/S121T/S35A/S48A/V306I/V36M/Y195H/Y91F); format: binding
[13] = target: HLA B*5401 (Homo sapiens, UniProt P01889, A329T/C349S/D138N/D201E/E176V/E187T/E204Q/E69G/I76V/K202T/L119W/R155S/R180L/S121T/S35A/S48A/V127L/V306I/V36M/Y140L); format: binding
[14] = target: H-2 D^d (Mus musculus, UniProt P01900); format: binding
Chain of H-2 D^d (P01900 whole entry, looked up): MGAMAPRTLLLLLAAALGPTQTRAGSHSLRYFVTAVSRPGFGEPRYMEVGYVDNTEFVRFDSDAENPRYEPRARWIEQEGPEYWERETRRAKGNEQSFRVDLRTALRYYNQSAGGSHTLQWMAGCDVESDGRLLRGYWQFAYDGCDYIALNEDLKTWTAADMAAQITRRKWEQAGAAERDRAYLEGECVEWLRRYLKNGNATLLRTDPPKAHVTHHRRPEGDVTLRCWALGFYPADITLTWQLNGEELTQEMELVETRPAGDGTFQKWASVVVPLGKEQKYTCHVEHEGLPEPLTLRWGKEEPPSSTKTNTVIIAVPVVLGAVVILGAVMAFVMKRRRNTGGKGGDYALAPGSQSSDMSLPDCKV

[15] = target: HLA B*5802 (Homo sapiens, UniProt P01889, A329T/C349S/D201E/D98Y/E176V/E187L/E204Q/E69T/G107R/I218V/I90N/K202T/L105A/N104I/N87E/Q89R/Q94S/R106L/R155S/R180L/R86G/S101N/S121W/S35A/S48A/V127L/V306I/V36M/Y140S/Y91M); format: binding
[16] = target: HLA B*0702 (Homo sapiens, UniProt P01889); format: binding; conditions: positional scanning combinatorial 9-mer library; normalized to 1.0 for the best residue at each position
[17] = target: HLA B*2705 (Homo sapiens, UniProt P01889, D138H/D201E/E176V/E204Q/G107R/H137Y/K202T/N104T/N87E/Q56L/Q94K/R106L/R155S/R180L/S101D/S121N/S48T/Y140D/Y33H/Y91C); format: binding; conditions: positional scanning combinatorial 9-mer library; normalized to 1.0 for the best residue at each position
[18] = target: HLA A*0201 (Homo sapiens, UniProt P04439, D140Y/D185E/D98H/E176V/E277Q/G131W/G231S/I119V/I121R/I166T/I218V/L300P/L318F/N151K/N90K/P208A/P217A/Q86G/Q94H/R138H/R169H/T345S); conditions: positional scanning combinatorial 9-mer library; normalized to 1.0 for the best residue at each position

Row | Sequence | Normalized average relative binding affinity (ARB), HLA B*1503 [1] | Normalized average relative binding affinity (ARB), HLA B*5301 [2] | Normalized average relative binding affinity (ARB), HLA A*6802 [3] | Normalized average relative binding affinity (ARB), HLA A*3201 [4] | Normalized average relative binding affinity (ARB), HLA B*0801 [5] | Normalized average relative binding affinity (ARB), HLA B*5801 [6] | Normalized average relative binding affinity (ARB), HLA A*3001 [7] | Normalized average relative binding affinity (ARB), H-2 Db [8] | Normalized average relative binding affinity (ARB), HLA B*3501 [9] | Normalized average relative binding affinity (ARB), HLA B*1501 [10] | Normalized average relative binding affinity (ARB), H-2 Kk [11] | Normalized average relative binding affinity (ARB), HLA B*5101 [12] | Normalized average relative binding affinity (ARB), HLA B*5401 [13] | Normalized average relative binding affinity (ARB), H-2 Dd [14] | Normalized average relative binding affinity (ARB), HLA B*5802 [15] | Normalized average relative binding affinity (ARB), HLA B*0702 [16] | Normalized average relative binding affinity (ARB), HLA B*2705 [17] | Normalized average relative binding affinity (ARB), HLA A*0201 [18]
1 | DXXXXXXXX [3064.0003] | 0.016 | 0.028 | 0.21 | 0.031 | 0.13 | 0.013 | 0.0069 | 0.033 | 0.11 | 0.042 | 0.43 | 0.27 | 0.050 | 0.059 | 0.068 | 0.021 | 0.022 | 0.0078
2 | XPXXXXXXX [3064.0033] | 0.031 | 1.0 | 0.041 | 0.022 | 1.0 | 0.014 | 0.024 | 0.036 | 1.0 | 0.015 | 0.017 | 1.0 | 0.19 | 0.064 | 0.051 | 1.0 | 0.0016 | 0.0034
3 | XIXXXXXXX [3064.0028] | 0.026 | 0.11 | 0.15 | 0.35 | 0.24 | 0.046 | 0.18 | 0.076 | 0.032 | 0.42 | 0.0026 | 0.047 | 0.0071 | 0.018 | 0.11 | 0.033 | 0.0022 | 0.057
4 | XGXXXXXXX [3064.0026] | 0.042 | 0.022 | 0.014 | 0.025 | 0.17 | 0.14 | 0.22 | 0.42 | 0.063 | 0.095 | 0.0063 | 0.16 | 0.011 | 1.0 | 0.077 | 0.0028 | 0.0016 | 0.0090
5 | XAXXXXXXX [3064.0021] | 0.13 | 0.44 | 0.12 | 0.11 | 0.41 | 0.48 | 0.89 | 0.64 | 0.88 | 0.57 | 0.047 | 0.54 | 1.0 | 0.025 | 0.035 | 0.086 | 0.0054 | 0.0018
6 | VXXXXXXXX [3064.0018] | 0.22 | 0.018 | 0.038 | 0.28 | 0.047 | 0.74 | 0.074 | 0.094 | 0.11 | 0.14 | 0.13 | 0.17 | 0.032 | 0.80 | 0.21 | 0.14 | 0.16 | 0.062
